Measurements reported in US20100137146A1, “Method of Screening Antibacterial Drug Compounds” (Temasek Lifesciences Laboratory, priority 2006, published 2010).

Tests used:
MreB = biological target: T1, MreB (Escherichia coli, UniProt P0A9X4); type: cell-based, E. coli
T1 construct: the protein is expressed as a fusion of the full-length bacterial protein with a reporter; expressed in transfected cells; host or cells: Schizosaccharomyces pombe (pREP42-gfp-mreB, nmt42 promoter)
Description: GFP-MreB and FtsZ-GFP were expressed in S. pombe by growing the transformed cultures in the absence of thiamine for 16-20 hours. In the case of fission-yeast temperature-sensitive mutants carrying the GFP-MreB plasmid, cultures were grown in the absence of thiamine for 25-30 hours at 24° C. to allow sufficient expression of the protein. However, prior to the formation of MreB-polymers, the cultures were shifted to restrictive temperatures for a period of 4 hours. The cells were subsequently fixed and stained for actin or tubulin.
The cells were-either fixed with formaldehyde 0.7%) or observed live under a fluorescence microscope. Inhibition of MreB polymerization was achieved by the addition of A22 at a final concentration of 50 μg/ml after 14-16 hours of growth in the absence of thiamine. Cultures were allowed to grow further for a period of 6-8 hours before washing of A22 for time-lapse microscopy. The cells were mounted onto agarose slides, and images were acquired at fixed time intervals. Immunofluorescence was carried out as described in Balasubramanian et al., Meth. Enzymol. 283:494-495, 1997.
Next, whether MreB polymerization in fission yeast was mechanistically related to its polymerization in bacteria was assessed. Studies in bacteria have shown that the small molecule A22 affects the polymerization and/or maintenance of MreB polymers. To test whether A22 prevents polymerization of MreB in fission yeast, cells were treated with A22 prior to the induction of MreB expression. Cells expressing GFP-MreB were treated with the MreB-inhibitor A22 (0 minute time point) at a concentration of 50 μg/ml. The drug then was washed out, and cells were imaged by time-lapse microscopy.
To this end, cells containing preformed MreB bundles were treated with A22.

F-actin = biological target: T2, F-actin (Schizosaccharomyces pombe, UniProt P10989); assay: F-actin staining (rhodamine-conjugated phalloidin) in S. pombe cells expressing GFP-MreB; type: cell-based; details: LatA 20 μg/ml for 10 minutes
T2 construct: endogenous in cells; host or cells: Schizosaccharomyces pombe cells expressing GFP-MreB
Description: S. pombe cells expressing GFP-MreB were fixed with methanol and incubated with tubulin (1:100) antibodies. Mouse secondary antibodies conjugated to Alexa-594™ were used at 1:400 for visualizing tubulin. For actin staining, cultures were fixed with formaldehyde (3.7%) and permeablized by using 1% Triton-X 100 in PBS. Rhodamine-conjugated phalloidin was used to visualize S. pombe actin. Latrunculin A (LatA) was added at a final concentration of 20 μg/ml for 10 minutes, and methyl 1-(butylcarbanoyl)-2-benzimidazolecarbamate (MBC) was added at a 25 μg/ml for 20 minutes. For methods, see Karagiannis et al., Mol. Biol. Cell 16:358-371, 2005 and Sawin et al., J. Cell Sci. 117:689-700, 2004, the disclosures of which are hereby incorporated by reference. For time-lapse imaging, LatA and MBC were included simultaneously in the agarose pads. […] Pictures were obtained with a CCD camera (CoolSnapHQ™, Photometrics™). The images were acquired and processed with Meta-morph™.
Studies therefore were performed to determine whether MreB assembly and maintenance was dependent on F-actin and microtubules. Cells were grown in the absence of thiamine to allow expression GFP-MreB. Cultures were then treated with LatA (20 μg/ml) for 10 minutes or methyl 1-butylcarbamoyl-2-benzimidazolecarbamate MBC (25 μg/ml) for 20 minutes to disrupt F-actin and microtubule, respectively. […]

GFP-MreB D165E = GFP-MreB D165E (Escherichia coli, UniProt P0A9X4, D165E); details: GFP-MreB D165E in wild type fission yeast
Sequence of GFP-MreB D165E (P0A9X4 whole entry D165E): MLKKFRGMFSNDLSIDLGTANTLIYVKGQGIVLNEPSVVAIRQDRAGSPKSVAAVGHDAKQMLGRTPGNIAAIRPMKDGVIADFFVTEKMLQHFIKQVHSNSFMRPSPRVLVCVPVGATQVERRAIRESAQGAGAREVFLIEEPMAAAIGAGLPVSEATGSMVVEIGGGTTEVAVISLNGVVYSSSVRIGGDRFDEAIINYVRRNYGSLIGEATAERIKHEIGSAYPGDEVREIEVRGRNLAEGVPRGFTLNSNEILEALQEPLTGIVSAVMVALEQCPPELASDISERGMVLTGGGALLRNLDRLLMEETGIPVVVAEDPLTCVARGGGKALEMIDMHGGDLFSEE
Description: (§1) The MreB ATPase mutants were generated by overlap PCR with the following mutagenic primers: MOH2516 and MOH2517 for E143A and MOH2512 and MOH2513 for D165E along with the above-mentioned end primers (MOH2413 and MOH2414). The GFP-MreB mutants were all cloned into pREP42. All plasmids and mutations were verified by sequencing.
(§2) In bacteria, mutations in the vicinity of the ATP binding pocket of MreB confer A22 resistance. […] Plasmids expressing GFP-MreB E143A (see Garner et al., Science 306:1021-1025, 2004) or D165E (see Kruse et al., EMBO J. 22:5283-5292, 2003) were introduced into wild type fission yeast cells. Cultures were grown in the absence of thiamine to induce the expression of GFP fusion proteins. […] See FIGS. 15A (E143A) and 15B (D165E).

GFP-MreB E143A = GFP-MreB E143A (Escherichia coli, UniProt P0A9X4, E143A); details: GFP-MreB E143A in wild type fission yeast
Sequence of GFP-MreB E143A (P0A9X4 whole entry E143A): as the sequence (P0A9X4 whole entry D165E) above, with E143A, E165D counted along it
Description: as §1, §2

T1 sequence (P0A9X4 whole entry, the tested form may be a part): as the sequence (P0A9X4 whole entry D165E) above, with E165D counted along it

## C/C1=C/C(=O)O[C@@H]2C[C@@H](CC[C@H](C)/C=C\C=C\CC1)O[C@@](O)([C@@H]1CSC(=O)N1)C2 [LatA, Latrunculin A]
MreB; LatA 20 μg/ml for 10 minutes
  Maintenance of MreB bundles: remained unperturbed
MreB; simultaneous presence of LatA (20 μg/ml) and MBC (25 μg/ml) in agarose pads
  MreB nucleation and assembly after A22 washout: MreB nucleated and assembled into polymers
MreB; simultaneous presence of LatA and MBC, rate without them 0.46±0.03 μm/min (n=44)
  Effect on average growth rate of MreB bundles: did not vary significantly
F-actin
  Disruption of F-actin: completely disassembled

## N=C(N)SCc1ccc(Cl)c(Cl)c1 [A22]
MreB; A22 50 μg/ml, S. pombe cells expressing GFP-MreB, 0 minute time point before washout
  MreB polymerization in fission yeast: did not exhibit MreB polymers
MreB; after removal of A22 (50 μg/ml), MreB filaments re-established at 20 minutes
  Reversibility of the effect on MreB polymerization: reversible
MreB; cells with prominent GFP-MreB bundles cultured 1 hour with A22
  Severing and/or disassembly of preformed MreB bundles: pre-existing bundles were unaffected
GFP-MreB D165E
  Structures assembled by MreB ATPase mutant, sensitivity to A22: assembled similar structures both in the presence and absence of A22
GFP-MreB E143A
  Structures assembled by MreB ATPase mutant, sensitivity to A22: assembled similar structures both in the presence and absence of A22
